Measurements from patent US10005824B2, “Selective PYY compounds and uses thereof” (Novo Nordisk A/S, priority 2015, dated 2018).

Legend:
[1] = biological target: T1, human NPY Y2 receptor (Homo sapiens, UniProt P49146); experiment: Actone functional potency assay (Y2 in vitro potency, whole cell); assay type: cell-based
T1 construct: host or cells: HEK-293 cells that also express a cAMP-sensitive calcium channel
T1 sequence (P49146 1-381): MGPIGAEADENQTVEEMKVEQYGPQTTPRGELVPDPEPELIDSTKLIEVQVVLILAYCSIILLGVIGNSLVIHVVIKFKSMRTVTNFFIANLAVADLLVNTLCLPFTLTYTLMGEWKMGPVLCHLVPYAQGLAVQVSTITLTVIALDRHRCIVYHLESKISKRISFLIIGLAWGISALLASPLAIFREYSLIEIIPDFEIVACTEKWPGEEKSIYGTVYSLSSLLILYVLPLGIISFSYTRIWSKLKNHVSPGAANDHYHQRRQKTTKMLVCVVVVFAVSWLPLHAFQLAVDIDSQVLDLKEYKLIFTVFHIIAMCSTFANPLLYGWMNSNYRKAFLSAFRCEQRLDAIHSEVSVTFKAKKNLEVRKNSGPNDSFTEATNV
From the text: The purpose of this example is to test the activity, or potency, of the PYY compounds in vitro. The Y2 in vitro potency is the measure of the activation of the human Y2 receptor subtype in a whole cell assay.
Actone Functional Potency Assay
The Neuropeptide Y (NPY) receptors are Gi-coupled seven trans-membrane receptors that mainly signal through the cAMP dependent pathway by inhibiting adenylate cyclase activity which results in a decrease of cAMP production from ATP. The Actone assay is based on a modified calcium channel that has a selective binding for cAMP, resulting in cellular calcium influx, detected by a calcium responsive dye. In order to measure decreased levels of cAMP, as result of NPY receptor activation, the β1/β2-adrenoreceptor agonist, isoproterenol, is added to activate adenylate cyclase and increases cAMP levels in the cell. Decreased cellular calcium concentrations, reflecting a decrease of cAMP levels due to NPY receptor activation, is detected as a decrease in fluorescence from the calcium sensitive dye.

[2] = biological target: T2, human Y1 receptor (Homo sapiens, UniProt P25929); experiment: Scintillation proximity assay (SPA) receptor binding, Y1
T2 construct: expressed in transfected cells; host or cells: BHK-21 clone 6-482-8, IPTG-induced (membrane preparation)
T2 sequence (P25929 1-384): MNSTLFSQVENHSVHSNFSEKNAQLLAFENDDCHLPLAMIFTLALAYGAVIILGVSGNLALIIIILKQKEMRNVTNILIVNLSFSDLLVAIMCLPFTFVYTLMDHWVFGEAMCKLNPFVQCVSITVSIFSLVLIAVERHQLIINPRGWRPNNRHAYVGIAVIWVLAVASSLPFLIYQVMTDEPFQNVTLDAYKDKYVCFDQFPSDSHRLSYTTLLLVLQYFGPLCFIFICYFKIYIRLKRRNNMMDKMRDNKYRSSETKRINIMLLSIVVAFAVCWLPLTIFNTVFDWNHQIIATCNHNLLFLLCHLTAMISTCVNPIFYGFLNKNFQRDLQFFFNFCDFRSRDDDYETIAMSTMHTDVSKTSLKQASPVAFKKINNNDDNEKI
Protocol: (§1) The purpose of this example is to test the in vitro binding of the PYY compounds to the Y1, Y2, Y4 and Y5 receptor subtypes, respectively. The receptor binding affinity is a measure of affinity of a compound for the human Y1, Y2, Y4 and Y5 receptor subtypes, respectively.
(§2) Scintillation Proximity Assay (SPA)
(§3) NPY-Receptor Expressing Cell Lines.
(§4) All cells were cultured at +37° C. in a humidified atmosphere with 5% CO2. […] CHO-K1 cells stably expressing the human Y2 receptor (P49146, NPY2R_HUMAN, Uniprot) were cultured in DMEM F-12 with 10% FBS, 1% P/S, 150 μg/ml Hygromycin B and 10 μg/ml Puromycin antibiotic. CHO-K1 cells stably expressing the human Y4 receptor (P50391, NPY4R_HUMAN, Uniprot) were cultured in DMEM F-12 with 10% FBS, 1% P/S, 10 μg/ml Puromycin. HEK-293 cells stably expressing the human Y5 receptor (Q15761, NPY5R_HUMAN, Uniprot) were cultured in DMEM F-12 medium containing 10% FBS, 1% Penicillin-Streptomycin, 250 μg/ml G418 and 1 μg/ml puromycin.
The homogenate was centrifuged at 35000 g using an ultracentrifuge for 10 minutes at +4° C. and the supernatant was discarded and fresh homogenization buffer added. Homogenization of the pellet was repeated a total of three times.
Human Y receptor SPA binding assay were performed in white 96-well plates in a total volume of 200 μl per well.
(§5) Plates were sealed and incubated at +25° C. for 2 hours in a plate shaker set at 400 rpm and thereafter centrifuged at 1500 rpm for 10 minutes prior to reading of luminescence on a microplate scintillation and luminescence counter. […] Displacement of radioligand was measured as reduction in luminescence and IC50 values were calculated by nonlinear regression analysis of sigmoidal dose-response curves.

[3] = biological target: T3, human Y5 receptor (Homo sapiens, UniProt Q15761); experiment: Scintillation proximity assay (SPA) receptor binding, Y5; details: membranes of HEK-293 cells, [125I]-PYY(1-36)
T3 construct: expressed in transfected cells; host or cells: HEK-293 (membrane preparation)
T3 sequence (Q15761 1-445): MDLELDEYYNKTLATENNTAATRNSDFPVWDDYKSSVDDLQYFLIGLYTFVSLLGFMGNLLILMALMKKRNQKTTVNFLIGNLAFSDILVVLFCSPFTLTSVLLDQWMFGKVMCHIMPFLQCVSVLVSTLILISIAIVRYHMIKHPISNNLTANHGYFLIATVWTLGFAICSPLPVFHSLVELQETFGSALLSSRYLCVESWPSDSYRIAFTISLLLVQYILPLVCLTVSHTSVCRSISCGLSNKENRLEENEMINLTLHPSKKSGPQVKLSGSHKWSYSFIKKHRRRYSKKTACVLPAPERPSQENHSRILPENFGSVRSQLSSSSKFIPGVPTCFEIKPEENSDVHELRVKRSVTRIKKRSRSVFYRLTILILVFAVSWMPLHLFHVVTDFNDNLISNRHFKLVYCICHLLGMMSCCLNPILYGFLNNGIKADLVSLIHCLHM
Protocol: as §1, §2, §3
as §4, with “puromycin. […]” for “puromycin.”
as §5

Row | SMILES | EC50 [1] [nM] | Ki [2] [nM] | Ki [3] [nM]
1 | CC(C)CC(=O)N[C@@H](CCCNC(=N)N)C(=O)N1CCC[C@H]1C(=O)N[C@@H](CCC(=O)O)C(=O)N[C@@H](C)C(=O)N1CCC[C@H]1C(=O)NCC(=O)N[C@@H](CCCCNC(=O)CC[C@H](NC(=O)COCCOCCNC(=O)CC[C@H](NC(=O)CCCCCCCCCCCCCCCCC(=O)O)C(=O)O)C(=O)O)C(=O)N[C@@H](CC(=O)O)C(=O)N[C@@H](C)C(=O)N[C@@H](CO)C(=O)N1CCC[C@H]1C(=O)N[C@@H](CCC(=O)O)C(=O)N[C@@H](CCC(=O)O)C(=O)N[C@@H](CC(C)C)C(=O)N[C@@H](CCC(N)=O)C(=O)N[C@@H](CCCNC(=N)N)C(=O)N[C@@H](Cc1ccc(O)cc1)C(=O)N[C@@H](Cc1ccc(O)cc1)C(=O)N[C@@H](C)C(=O)N[C@@H](CCC(=O)O)C(=O)N[C@@H](CC(C)C)C(=O)N[C@@H](CCCNC(=N)N)C(=O)N[C@@H](Cc1c[nH]cn1)C(=O)N[C@@H](Cc1ccc(O)cc1)C(=O)N[C@@H](Cc1ccc(O)cc1)C(=O)N[C@@H](CC(N)=O)C(=O)N[C@@H](Cc1c[nH]c2ccccc12)C(=O)N[C@@H](CC(C)C)C(=O)N[C@H](C(=O)N[C@@H](CCCNC(=N)N)C(=O)N[C@@H](CCC(N)=O)C(=O)N[C@@H](CCCNC(=N)N)C(=O)N[C@@H](Cc1ccc(O)cc1)C(N)=O)[C@@H](C)O [Compound 53, N{alpha-4}-(3-Methylbutanoyl)-N{Epsilon-10}-[(4S)-4-carboxy-4-[[2-[2-[2-[[(4S)-4-carboxy-4-(17-carboxyheptadecanoylamino)butanoyl]amino]ethoxy]ethoxy]-acetyl]amino]butanoyl]-[Arg4,Lys10,Gln18,Glu23,Tyr28,Trp30,Leu31]-PYY(4-36)] | 0.77 | > 10000 | –
2 | CC(C)CC(=O)N[C@@H](CCCNC(=N)N)C(=O)N1CCC[C@H]1C(=O)N[C@@H](CCC(=O)O)C(=O)N[C@@H](C)C(=O)N1CCC[C@H]1C(=O)NCC(=O)N[C@@H](CCCCNC(=O)CC[C@H](NC(=O)COCCOCCNC(=O)CC[C@H](NC(=O)CCCCCCCCCCCCCCCCC(=O)O)C(=O)O)C(=O)O)C(=O)N[C@@H](CC(=O)O)C(=O)N[C@@H](C)C(=O)N[C@@H](CO)C(=O)N1CCC[C@H]1C(=O)N[C@@H](CCC(=O)O)C(=O)N[C@@H](CCC(=O)O)C(=O)N[C@@H](CC(C)C)C(=O)N[C@@H](CCC(N)=O)C(=O)N[C@@H](CCCNC(=N)N)C(=O)N[C@@H](Cc1ccc(O)cc1)C(=O)N[C@@H](Cc1ccc(O)cc1)C(=O)N[C@@H](C)C(=O)N[C@@H](CO)C(=O)N[C@@H](CC(C)C)C(=O)N[C@@H](CCCNC(=N)N)C(=O)N[C@@H](Cc1c[nH]cn1)C(=O)N[C@@H](Cc1ccc(O)cc1)C(=O)N[C@@H](Cc1ccc(O)cc1)C(=O)N[C@@H](CC(N)=O)C(=O)N[C@@H](Cc1c[nH]c2ccccc12)C(=O)N[C@@H](CC(C)C)C(=O)N[C@H](C(=O)N[C@@H](CCCNC(=N)N)C(=O)N[C@@H](CCC(N)=O)C(=O)N[C@@H](CCCNC(=N)N)C(=O)N[C@@H](Cc1ccc(O)cc1)C(N)=O)[C@@H](C)O [Compound 59, N{alpha-4}-(3-Methylbutanoyl)-N{Epsilon-10}-[(4S)-4-carboxy-4-[[2-[2-[2-[[(4S)-4-carboxy-4-(17-carboxyheptadecanoylamino)butanoyl]amino]ethoxy]ethoxy]-acetyl]amino]butanoyl]-[Arg4,Lys10,Gln18,Tyr28,Trp30,Leu31]-PYY-(4-36)] | – | > 10000 | 279
3 | CC(C)CC(=O)N[C@@H](CCCNC(=N)N)C(=O)N1CCC[C@H]1C(=O)N[C@@H](CCC(=O)O)C(=O)N[C@@H](C)C(=O)N1CCC[C@H]1C(=O)N1CCC[C@H]1C(=O)N[C@@H](CCCCNC(=O)CC[C@H](NC(=O)COCCOCCNC(=O)CC[C@H](NC(=O)CCCCCCCCCCCCCCCCC(=O)O)C(=O)O)C(=O)O)C(=O)N[C@@H](CC(=O)O)C(=O)N[C@@H](C)C(=O)N[C@@H](CO)C(=O)N1CCC[C@H]1C(=O)N[C@@H](CCC(=O)O)C(=O)N[C@@H](CCC(=O)O)C(=O)N[C@@H](CC(C)C)C(=O)N[C@@H](CCC(N)=O)C(=O)N[C@@H](CCCNC(=N)N)C(=O)N[C@@H](Cc1ccc(O)cc1)C(=O)N[C@@H](Cc1ccc(O)cc1)C(=O)N[C@@H](C)C(=O)N[C@@H](CO)C(=O)N[C@@H](CC(C)C)C(=O)N[C@@H](CCCNC(=N)N)C(=O)N[C@@H](Cc1c[nH]cn1)C(=O)N[C@@H](Cc1ccc(O)cc1)C(=O)N[C@@H](Cc1ccc(O)cc1)C(=O)N[C@@H](CC(N)=O)C(=O)N[C@@H](Cc1c[nH]c2ccccc12)C(=O)N[C@@H](CC(C)C)C(=O)N[C@H](C(=O)N[C@@H](CCCNC(=N)N)C(=O)N[C@@H](CCC(N)=O)C(=O)N[C@@H](CCCNC(=N)N)C(=O)N[C@@H](Cc1ccc(O)cc1)C(N)=O)[C@@H](C)O [Compound 56, N{alpha-4}-(3-Methylbutanoyl)-N{Epsilon-10}-[(4S)-4-carboxy-4-[[2-[2-[2-[[(4S)-4-carboxy-4-(17-carboxyheptadecanoylamino)butanoyl]amino]ethoxy]ethoxy]-acetyl]amino]butanoyl]-[Arg4,Pro9,Lys10,Gln18,Tyr28,Trp30,Leu31]-PYY(4-36)] | – | > 10000 | 279
